In patent publication EP0727211A1, “Use of src SH2 specific compounds to treat a bone resorption disease” (SMITHKLINE BEECHAM CORPORATION, priority 1995, dated 1996):

Biological target: T1, human lck SH2 domain (Homo sapiens, UniProt P06239)
T1 construct: Cloning and expression of human lck SH2 domain containing tags and an enterokinase proteolytic cleavage site; made in house; host or cells: E. coli AR120
Experiment: SH2 domain / pY peptide binding assay (ELISA-based, 96 well plate), lck SH2
Conditions: Ki calculated from IC50 by the expanded equation; Table II
Experimental: The inhibitory activity of compounds at the different human SH2 domains was determined in vitro using SH2 domains expressed as fusion proteins in E. coli. The SH2 domains used herein were the human forms of the src SH2 domain, Grb2 SH2 domain, lck SH2 domain, fyn SH2 domain, SH-PTP2 SH2 domain, p85 SH2 domain and hcp SH2 domain.
The fusion proteins containing the src, lck and hcp SH2 domains were expressed as the general sequence: DET1-DET2-spacer-ek-SH2, where DETI, DET2, spacer, ek and SH2 are as described below. DET1 ("defined epitope tag 1") (SEQ ID NO: 1) is an 11 amino acid sequence found in the Human Immunodeficiency Virus Type 1 (HIV-1) envelope protein gp120 (or gp160). Monoclonal antibodies to various epitopes of HIV-1 gp120 (or gp160) are known in the art, see, for example U.S. Patent 5,166,050. One preferred example is monoclonal antibody 178.1 (see, e.g., Thiriart et al., J. Immunol., 143:1832-1836 (1989)), which was prepared by immunization of mice with a yeast-expressed HIV-1 gp160 molecule from strain BH10 (Ratner et al., Nature, 313:277-284 (1985)). This tag was used for detection of expression (by Western blot), for purification of the protein (by affinity chromatography), and for configuring assays in which the fusion protein was captured or immobilized using the 178.1 antibody. DET2 is a hexahistidine sequence tag (SEQ ID NO: 2) which binds to nickel-containing resins and was used for purification purposes. Spacer (SEQ ID NO: 3) was utilized to design a BamH1 restriction site at the indicated position of the construct. The term -ekrefers to a recognition sequence (SEQ ID NO: 4) for the enterokinase protease which provides for the optional removal of the tags from the SH2 domain, thus producing an SH2 domain that contains no extraneous amino acids. SH2 domains which contain no extraneous amino acids are preferable to tagged protein for crystallography studies. SH2 refers to the SH2 domains of different proteins.
Cloning and expression of human lck SH2 domain containing tags and an enterokinase proteolytic cleavage site (DET1-DET2-spacer-ek-lck SH2).
A DNA sequence encoding protein ek-lck SH2 was PCR amplified from a cDNA clone containing the human lck gene (Genbank accession number M36881) using the following primers: [formula]
The PCR product was digested with BamHI and XbaI, followed by isolation of the digested fragment on an agarose gel. The fragment was ligated into BamHI-XbaI-digested expression vector containing the tagged chicken src gene DET1-DET2-spacer-SH2 described in Procedure 1 above. In that vector, the BamHI site is located in between the coding regions for DET2 and SH2, and the XbaI site is located after the 3' end of the SH2 coding region. Thus, the ek-lck SH2 sequence replaced the src SH2 sequence in the above vector. The ligation reaction was used to transform E. coli MM294cI^+. The construct containing […] was confirmed by DNA sequencing (SEQ ID NO: 6) and induced in E. coli strain AR120 as described in Procedure 1 above. A Coomassie-Blue-stained, Western-blot-positive induced protein band with an apparent molecular weight of 17,000 was observed after nalidixic acid induction.
Cells were lysed at neutral pH by sonication in the presance of lysozyme. After centrifugation, the soluble extract was chromatographed on a Ni^++NTA column. After washing the column with equilibration buffer (Tris buffer pH 8 containing 0.5 M NaCl) and the same buffer containing 15 mM imidazole, the protein was eluted in highly purified form with 25 mM imidazole in equilibration buffer.
The binding assays for the SH2 domains and pY peptides were performed in an ELISA-based 96 well plate assay. In Millipore 96 well filter plates, hydrophilic Durapore® (pore size 0.65um Cat. No. MADVN6550), was added 2 ul (50% suspension) of Protein-G Sepharose (available from Pharmacia of N.J. Cat. No. 17-0618-01) and either 2 ul of 2 mg/ml of MAB178. […]

T1 sequence (P06239 127-224 limits assumed): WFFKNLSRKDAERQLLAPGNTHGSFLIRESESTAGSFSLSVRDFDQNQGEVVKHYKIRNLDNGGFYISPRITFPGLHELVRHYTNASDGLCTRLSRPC

CCCCCCNC(=O)[C@H]1CC[C@H](CNC(=O)c2ccc(C(=O)c3ccc(C(=O)O)cc3)cc2)CC1 [Compound 6, 4-carboxy-benzophenone-4-carboxamido-trans-4-methyl-cyclohexyl-N-hexyl carboxamide]
Ki: 50 µM
